Values after ≈ are worked out from the molar mass of the structure shown.
Columns and labels:
Assay type in all cases: functional
Vibrio cholerae = assay: Antimicrobial activity against Vibrio cholerae MTCC 3906 assessed as growth inhibition after 24-48 hr by NCCLS broth microdilution method
Salmonella typhi = assay: Antimicrobial activity against Salmonella enterica subsp. enterica serovar Typhi MTCC 98 assessed as growth inhibition after 24-48 hr by NCCLS broth microdilution method
Escherichia coli = assay: Antimicrobial activity against Escherichia coli MTCC 443 assessed as growth inhibition after 24-48 hr by NCCLS broth microdilution method
Streptococcus pneumoniae = assay: Antimicrobial activity against Streptococcus pneumoniae MTCC 1936 assessed as growth inhibition after 24-48 hr by NCCLS broth microdilution method
Clostridium tetani = assay: Antimicrobial activity against Clostridium tetani MTCC 449 assessed as growth inhibition after 24-48 hr by NCCLS broth microdilution method
Bacillus subtilis = assay: Antimicrobial activity against Bacillus subtilis MTCC 441 assessed as growth inhibition after 24-48 hr by NCCLS broth microdilution method
Candida albicans = assay: Antimicrobial activity against Candida albicans MTCC 227 assessed as growth inhibition after 24-48 hr by NCCLS broth microdilution method
Aspergillus fumigatus = assay: Antimicrobial activity against Aspergillus fumigatus MTCC 3008 assessed as growth inhibition after 24-48 hr by NCCLS broth microdilution method

COc1ccc2nc(Oc3ccc(C)cc3)c(C3C(C#N)=C(N)OC4=C3C(=O)CC(C)(C)C4)cc2c1 (stereo not given)
MIC (Vibrio cholerae): 200 µg/mL (≈ 415 µM) | MIC (Salmonella typhi): 100 µg/mL (≈ 208 µM) | MIC (Escherichia coli): 100 µg/mL (≈ 208 µM) | MIC (Streptococcus pneumoniae): 500 µg/mL (≈ 1040 µM) | MIC (Clostridium tetani): 100 µg/mL (≈ 208 µM) | MIC (Bacillus subtilis): 500 µg/mL (≈ 1040 µM) | MIC (Candida albicans): 1000 µg/mL (≈ 2080 µM) | MIC (Aspergillus fumigatus): 500 µg/mL (≈ 1040 µM)

COC1=CC(=O)C[C@@H](C)[C@]12Oc1c(Cl)c(OC)cc(OC)c1C2=O [GRISEOFULVIN]
MIC (Candida albicans): 500 µg/mL (≈ 1420 µM) | MIC (Aspergillus fumigatus): 100 µg/mL (≈ 283 µM)

O=C(O)c1cn(C2CC2)c2cc(N3CCNCC3)c(F)cc2c1=O [CIPROFLOXACIN]
MIC (Vibrio cholerae): 25 µg/mL (≈ 75.4 µM) | MIC (Salmonella typhi): 25 µg/mL (≈ 75.4 µM) | MIC (Escherichia coli): 25 µg/mL (≈ 75.4 µM) | MIC (Streptococcus pneumoniae): 50 µg/mL (≈ 151 µM)

COc1ccc2nc(Oc3ccccc3)c(C3C(C#N)=C(N)OC4=C3C(=O)CC(C)(C)C4)cc2c1 (stereo not given)
MIC (Vibrio cholerae): 200 µg/mL (≈ 428 µM) | MIC (Salmonella typhi): 500 µg/mL (≈ 1070 µM) | MIC (Escherichia coli): 200 µg/mL (≈ 428 µM) | MIC (Streptococcus pneumoniae): 500 µg/mL (≈ 1070 µM) | MIC (Clostridium tetani): 100 µg/mL (≈ 214 µM) | MIC (Bacillus subtilis): 500 µg/mL (≈ 1070 µM) | MIC (Candida albicans): 500 µg/mL (≈ 1070 µM) | MIC (Aspergillus fumigatus): 1000 µg/mL (≈ 2140 µM)

NYSTATIN
MIC (Candida albicans): 100 µg/mL | MIC (Aspergillus fumigatus): 100 µg/mL

O=C(N[C@H](CO)[C@H](O)c1ccc([N+](=O)[O-])cc1)C(Cl)Cl [CHLORAMPHENICOL]
MIC (Vibrio cholerae): 50 µg/mL (≈ 155 µM) | MIC (Salmonella typhi): 50 µg/mL (≈ 155 µM) | MIC (Escherichia coli): 50 µg/mL (≈ 155 µM) | MIC (Streptococcus pneumoniae): 50 µg/mL (≈ 155 µM) | MIC (Clostridium tetani): 50 µg/mL (≈ 155 µM) | MIC (Bacillus subtilis): 50 µg/mL (≈ 155 µM)

COc1ccc(Oc2nc3ccccc3cc2C2C(C#N)=C(N)OC3=C2C(=O)CCC3)cc1 (stereo not given)
MIC (Vibrio cholerae): 100 µg/mL (≈ 228 µM) | MIC (Salmonella typhi): 250 µg/mL (≈ 569 µM) | MIC (Escherichia coli): 150 µg/mL (≈ 341 µM) | MIC (Streptococcus pneumoniae): 100 µg/mL (≈ 228 µM) | MIC (Clostridium tetani): 1000 µg/mL (≈ 2280 µM) | MIC (Bacillus subtilis): 200 µg/mL (≈ 455 µM) | MIC (Candida albicans): 1000 µg/mL (≈ 2280 µM) | MIC (Aspergillus fumigatus): > 1000 µg/mL

CC1(C)S[C@@H]2[C@H](NC(=O)[C@H](N)c3ccccc3)C(=O)N2[C@H]1C(=O)O [AMPICILLIN]
MIC (Vibrio cholerae): 100 µg/mL (≈ 286 µM) | MIC (Salmonella typhi): 100 µg/mL (≈ 286 µM) | MIC (Escherichia coli): 100 µg/mL (≈ 286 µM) | MIC (Streptococcus pneumoniae): 100 µg/mL (≈ 286 µM) | MIC (Clostridium tetani): 250 µg/mL (≈ 715 µM) | MIC (Bacillus subtilis): 250 µg/mL (≈ 715 µM)

CCn1cc(C(=O)O)c(=O)c2cc(F)c(N3CCNCC3)cc21 [NORFLOXACIN]
MIC (Vibrio cholerae): 10 µg/mL (≈ 31.3 µM) | MIC (Salmonella typhi): 10 µg/mL (≈ 31.3 µM) | MIC (Escherichia coli): 10 µg/mL (≈ 31.3 µM) | MIC (Streptococcus pneumoniae): 10 µg/mL (≈ 31.3 µM) | MIC (Clostridium tetani): 50 µg/mL (≈ 157 µM) | MIC (Bacillus subtilis): 100 µg/mL (≈ 313 µM)

COc1ccc(Oc2nc3ccc(OC)cc3cc2C2C(C#N)=C(N)OC3=C2C(=O)CC(C)(C)C3)cc1 (stereo not given)
MIC (Vibrio cholerae): 250 µg/mL (≈ 502 µM) | MIC (Salmonella typhi): 250 µg/mL (≈ 502 µM) | MIC (Escherichia coli): 250 µg/mL (≈ 502 µM) | MIC (Streptococcus pneumoniae): 1000 µg/mL (≈ 2010 µM) | MIC (Clostridium tetani): 250 µg/mL (≈ 502 µM) | MIC (Bacillus subtilis): 1000 µg/mL (≈ 2010 µM) | MIC (Candida albicans): 250 µg/mL (≈ 502 µM) | MIC (Aspergillus fumigatus): 500 µg/mL (≈ 1000 µM)

N#CC1=C(N)OC2=C(C(=O)CCC2)C1c1cc2ccccc2nc1Oc1ccccc1 (stereo not given)
MIC (Vibrio cholerae): 250 µg/mL (≈ 611 µM) | MIC (Salmonella typhi): 250 µg/mL (≈ 611 µM) | MIC (Escherichia coli): 100 µg/mL (≈ 244 µM) | MIC (Streptococcus pneumoniae): 250 µg/mL (≈ 611 µM) | MIC (Clostridium tetani): 250 µg/mL (≈ 611 µM) | MIC (Bacillus subtilis): 250 µg/mL (≈ 611 µM) | MIC (Candida albicans): 500 µg/mL (≈ 1220 µM) | MIC (Aspergillus fumigatus): 1000 µg/mL (≈ 2440 µM)

COc1ccc2nc(Oc3ccc(F)cc3)c(C3C(C#N)=C(N)OC4=C3C(=O)CC(C)(C)C4)cc2c1 (stereo not given)
MIC (Vibrio cholerae): 250 µg/mL (≈ 515 µM) | MIC (Salmonella typhi): 100 µg/mL (≈ 206 µM) | MIC (Escherichia coli): 62.5 µg/mL (≈ 129 µM) | MIC (Streptococcus pneumoniae): 150 µg/mL (≈ 309 µM) | MIC (Clostridium tetani): 200 µg/mL (≈ 412 µM) | MIC (Bacillus subtilis): 200 µg/mL (≈ 412 µM) | MIC (Candida albicans): 500 µg/mL (≈ 1030 µM) | MIC (Aspergillus fumigatus): 500 µg/mL (≈ 1030 µM)

Cc1ccc(Oc2nc3ccccc3cc2C2C(C#N)=C(N)OC3=C2C(=O)CCC3)cc1 (stereo not given)
MIC (Vibrio cholerae): 200 µg/mL (≈ 472 µM) | MIC (Salmonella typhi): 500 µg/mL (≈ 1180 µM) | MIC (Escherichia coli): 250 µg/mL (≈ 590 µM) | MIC (Streptococcus pneumoniae): 500 µg/mL (≈ 1180 µM) | MIC (Clostridium tetani): 500 µg/mL (≈ 1180 µM) | MIC (Bacillus subtilis): 1000 µg/mL (≈ 2360 µM) | MIC (Candida albicans): 500 µg/mL (≈ 1180 µM) | MIC (Aspergillus fumigatus): 500 µg/mL (≈ 1180 µM)

N#CC1=C(N)OC2=C(C(=O)CCC2)C1c1cc2ccccc2nc1Oc1ccc(F)cc1 (stereo not given)
MIC (Vibrio cholerae): 500 µg/mL (≈ 1170 µM) | MIC (Salmonella typhi): 200 µg/mL (≈ 468 µM) | MIC (Escherichia coli): 100 µg/mL (≈ 234 µM) | MIC (Streptococcus pneumoniae): 250 µg/mL (≈ 585 µM) | MIC (Clostridium tetani): 500 µg/mL (≈ 1170 µM) | MIC (Bacillus subtilis): 250 µg/mL (≈ 585 µM) | MIC (Candida albicans): 250 µg/mL (≈ 585 µM) | MIC (Aspergillus fumigatus): > 1000 µg/mL

Reference: ChEMBL document CHEMBL3046940, “Microwave-assisted synthesis of novel 4H-chromene derivatives bearing 2-aryloxyquinoline and their antimicrobial activity assessment” (2013)
